In patent US11439646B2, “Anti-proliferative agents for treating PAH” (Pfizer Inc., priority 2016, dated 2022):

What was measured:
rat Su5416/Hx PAH model = assay: Rat SuHx (Su5416/hypoxia)-induced PAH model (hemodynamics, histomorphometry, IHC); assay type: in vivo
Procedure: SuHx-induced Pulmonary Arterial Hypertension: Sprague-Dawley rats were obtained from Charles River Laboratories (200-300 g; vehicle control, n=5; all other groups, n=10). Rats received Semaxinib dissolved in DMSO on day 0, followed by housing in low (13%) oxygen until day 28. Sildenafil (30 mg/kg/dose; BID), Riociguat (10 mg/kg, QD) or Palbociclib (100 mg/kg; QD) was administered in vehicle (0.5% methylcellulose) from days 7-28. Terminal hemodynamic evaluations and necropsy were conducted on day 28 in a manner similar to the MCT study.
Hemodynamic measurements Su/Hx study: On day 28, animals were anesthetized via intramuscular injection of ketamine/xylazine (80/10 mg/kg). A Millar catheter was inserted into the pulmonary artery and pulmonary pressure and hemodynamics were measured as described by Stringer et al., (1981) Catheterization of the pulmonary artery in the closed-chest rat. J. Appl. Physiol. 51, 1047-1050. Hemodynamic values were calculated using the NOTOCORD-Hem software (NOTOCORD, Inc., Croissy sur Sienne, France) (CorDynamics).
(§1) Measurement of RV hypertrophy. After collection of the heart at necropsy, the atria and great vessels were removed. The RV was separated from the LV and S. The wet weights of the RV and LV+S were measured to calculate the Fulton Index.
(§2) Tissue preparation. Under anesthesia, the animals were exsanguinated, and the pulmonary circulation flushed with oxygenated (animals from Example 3 [MCT]) or heparizined (animals from Example 4 [Su5416/Hx]) saline. Trachea, lungs, and heart were removed intact from thoracic cavity and placed in ice-cold saline. Right lung lobes were removed, weighed, and immediately flash frozen in liquid nitrogen. A 10 mL syringe filled with fixative (10% NBF) with attached blunt tip needle (20 g) was used to inflate the left lung lobe and the airway was tied off to keep it consistently expanded. The left lung was then immersion fixed in 10% NBF for 48 hrs and then transferred to 70% EtOH for ≤5 days.
(§3) Histomorphometric analysis. Three, 3-5 μm thick, transverse sections of the left lung lobe were used for histomorphometric analysis. Overall disease severity scores were determined by light microscopic evaluation of hematoxylin and eosin (H&E)-stained lung sections by a board-certified veterinary pathologist. Scores ranged from 0 (absent), 1 (minimal), 2 (mild), 3 (moderate), 4 (marked) to 5 (severe) and were assigned according to the approximate percentage of the tissue affected by the tissue changes (inflammatory, degenerative, vascular and/or proliferative) characteristic of the PAH model. Average vessel wall thickness was evaluated using lung sections prepared with a modified Verhoeff-van Gieson elastin stain. Image analysis was performed using random field sampling (Visiopharm newCAST) of 10% of tissue area with observer-assisted identification of intra-acinar and pre-acinar vessels and application of a nucleator probe to measure vessel wall thickness. Fully muscularized intra-acinar vessel density was evaluated in a similar manner using dual αSMA/Ki67 IHC-stained sections and observer-assisted counting of ≥70% muscularized (i.e. SMA^+), transversely sectioned, ≤50 μm external diameter, intra-acinar vessels with an identifiable lumen. Vessel-associated Ki67^+ and pRb^+ cells were counted in αSMA/Ki67 IHC-and CD31/pRb IHC-stained lung sections, respectively, using random field sampling of 10% of tissue area and observer-assisted identification of Ki67^+ or pRb^+ cells associated with the walls (i.e. in the intima or media) of vessels 100 μm external diameter.
Immunohistochemistry. Dual α-SMA/Ki67 nuclear antigen: All IHC steps were performed on 3 μm-thick, formalin-fixed, paraffin-embedded (FFPE) sections on Leica Bond Rx automated immunohistochemistry stainer. The instrument was programmed to bake and dewax the slides. […]

hPASMC = assay: EdU cell proliferation assay, hPASMC; assay type: cell-based; settings: Homo sapiens, 5% FBS, N = 6, FIG. 1e, read-out: hPASMC IC50 (nM), inhibition of proliferation
Procedure: Alternatively, rather than using BrdU, EdU (5-ethynyl-2′-deoxyuridine) can be used. Cells were first pre-incubated with different concentrations of the CDK inhibitor for 30 minutes, and then 5% FBS was added to stimulate cell proliferation. Cells were maintained for 24 h before the proliferation rate was evaluated using EDU Click-iT EdU Alexa Fluor® 647 HCS Assay (Thermofisher Scientific, USA). EdU was added to the medium 16 h before the quantification of EdU incorporation. Proliferation was quantified by scanning the 96-well plates using automated high content imaging platform equipped with appropriate fluorescence microscopic filters for DAPI (4′,6-Diamidino-2-Phenylindole) or Hoechst stain and Cyanine5 dyes as part of the Click-iT assay. Proliferating EdU positive cells detected at Cyanine5 were quantified and normalized to total cell number per well where the total cell number per cell was identified by DAPI or Hoechst signal. The % effect was then calculated:
The average (avg) amount (amt) of proliferating cells per concentration of CDK inhibitor with FBS present.
The minimum amount of proliferation (min amt of prolif'n) is based on cell numbers in the wells where FBS is not added and no CDK inhibitor is present.
The maximum amount of proliferation (max amt of prolif'n) is based on cell numbers in the wells where FBS is added and no CDK inhibitor is present.

[1] = tested on: Rat MCT-induced PAH Model; assay: Rat MCT-induced PAH model (hemodynamics, histomorphometry, IHC); assay type: in vivo
Procedure: Rat MCT-induced PAH Model: Male Sprague-Dawley rats (Charles River Laboratories) (260-280 g; vehicle control group, n=6; all other groups, n=15) received MCT (50 mg/kg, SC; 1 ml/kg BVV) dissolved in vehicle (33.3% 1 N HCl, 14.8% 1 N NaOH, 52.2% diH2O) or vehicle alone on day 0. Sildenafil (50 mg/kg/dose; BID) was administered (5 ml/kg, PO) either prophylactically from days 0-28 or therapeutically from days 14-28. Palbociclib (100 mg/kg; QD) was administered therapeutically (days 14-28). Both sildenafil and palbociclib were resuspended in vehicle (0.5% methylcellulose) and administered orally (5 ml/kg). On day 28, animals were anesthetized via isoflurane, hemodynamic parameters were evaluated, and tissues harvested after euthanasia.
Hemodynamic measurements—monocrotaline (MCT) study: On day 28, animals were anesthetized via 2% isofluorane in positive pressure ventilator. Pulmonary hemodynamics were measured using a pre-calibrated pressure transducer in isoflurane positive-pressure ventilated animals. Steady-state pulmonary and systemic arterial pressures were measured using a Millar Solid State Mikro-tip catheter (Millar Instruments, Houston, Tex.) introduced to the pulmonary arterial trunk at the level of the aortic arch via the right carodid artery. Hemodynamic values were automatically calculated by the physiological data acquisition system, ADI Chart (ADI Instruments, Colorado Springs, Colo.) (Plato BioPharma).
as §1, §2, §3
Immunohistochemistry. […]

[2] = days 7 to 28, score scale 0-5, FIG. 4g
[3] = day 14-28, score scale 0-5, FIG. 3g

**Q.** Which results are given for `CC(=O)c1c(C)c2cnc(Nc3ccc(N4CCNCC4)cn3)nc2n(C2CCCC2)c1=O` [Palbociclib, 6-acetyl-8-cyclopentyl-5-methyl-2-{[5-(piperazin-1-yl)pyridin-2yl]amino}pyrido[2,3-d]pyrimidin-7(8H)-one]?
**A.** vessel-associated Ki67+ cells in the pulmonary vasculature (IHC) (rat Su5416/Hx PAH model; days 7 to 28): fully reversed; vessel-associated pRb+ cells in the pulmonary vasculature (IHC) (rat Su5416/Hx PAH model; days 7 to 28): fully reversed; Fulton Index (rat Su5416/Hx PAH model; days 7 to 28, FIG. 4c): significant reduction; muscularized intra-acinar vessel density relative to vehicle/Su5416/Hx group (rat Su5416/Hx PAH model; days 7 to 28, FIG. 4e): 0.68 x Su5416/Hx; structural changes in the pulmonary vasculature (histomorphometry) (rat Su5416/Hx PAH model; days 7 to 28, FIG. 4f): dramatically improved and in some cases fully normalized; heart weight vs vehicle/Su5416/Hx group (rat Su5416/Hx PAH model; days 7 to 28, FIG. 4j): significant reduction; average vessel wall thickness, intra-acinar and pre-acinar vessels (rat Su5416/Hx PAH model; days 7 to 28, FIG. 4d): significantly reduced; disease severity scores, mean (rat Su5416/Hx PAH model; [2]): 0.25; disease severity scores, range (rat Su5416/Hx PAH model; [2]): 0-1.5; hemodynamic endpoints / hemodynamic changes (rat Su5416/Hx PAH model; palbociclib 100 mg/kg/day PO QD days 7 to 28): restored hemodynamic endpoints closer to the non-diseased control group; hemodynamic endpoints / hemodynamic changes (rat Su5416/Hx PAH model; palbociclib 100 mg/kg/day PO QD days 7 to 28, listed as palbociclib): near-complete suppression; IC50 (hPASMC): 0.3 nM; structural changes in the pulmonary vasculature (histomorphometry) ([1]; FIG. 3f): dramatically improved and in some cases fully normalized; vessel-associated Ki67+ proliferating cells (IHC, lung) ([1]; FIG. 5c): dramatically decreased to control levels; vessel-associated phosphoRb+ cells (IHC, lung) ([1]; FIG. 5d): dramatically decreased to control levels; density of fully muscularized intra-acinar vessels (αSMA staining) ([1]; day 14-28, FIG. 3e): greater reduction; average vessel wall thickness (elastin staining), intra-acinar and pre-acinar pulmonary arteries, relative to vehicle/MCT group ([1]; day 14-28, FIG. 3d): 0.58 x MCT; disease severity scores, mean [1, 3]: 1; disease severity scores, range [1, 3]: 0-2; hemodynamic and physiologic effects ([1]; palbociclib 100 mg/kg/day PO QD, therapeutic day 14-28, versus sildenafil day 0-28): not only matched but exceeded the positive hemodynamic and physiologic effects of sildenafil when dosed prophylactically
